Measured values: US20100144755A1 (Glaxo Group Limited, priority 2006, published 2010)
Read-outs that look alike come from different tables or passages of the source.

Key:
[1] = tested on: TNF-stimulated IL8 production by human neutrophils; assay: TNF-stimulated IL-8 production from human neutrophils; assay type: cell-based; conditions: Neutrophil, TNF 100 ng/ml, about 20 hrs, bounds reflect the top concentration screened, for 202(c) and 120 a range over multiple runs with ends given as 'greater than';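 further: IL-8 in cell-free supernatant quantified by sandwich ELISA, inhibition calculated against a compound-free control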
Method: TNF-Stimulated IL-8 Production from Human Neutrophils
The effect of test compounds on TNF-stimulated IL8 production by human neutrophils is measured as follows. Neutrophils are prepared from blood obtained from consenting donors, using standard methods. Blood is collected in heparinized syringes and layered over histopaque (30 ml/20 ml). Following centrifugation, the red cell pellet is resuspended in PBS and purified over a dextran gradient. […] Cells are added (0.5-1 ml) to 48 well plates already containing compound at 1000× final concentration in neat DMSO or 10% DMSO in RPMI1640 with 10% FBS. TNF (final concentration 100 ng/ml) is used as the stimulus. Cells incubated for approximately 20 hrs at 37° C., 5% CO2. Levels of IL-8 in the cell free supernatant are determined by sandwich ELISA, and inhibition relative to a control with DMPO but no compound is calculated.

Recombinant human p38α = biological target: T1, Recombinant human p38α (Homo sapiens, UniProt Q16539); assay: Fluorescence anisotropy kinase binding assay (standard and low volume)
T1 construct: His; made in house
Source text: Fluorescence Anisotropy Kinase Binding Assay—Standard Volume
(§1) The concentration of kinase enzyme should preferably be ≧2×Kf. The concentration of fluorescent ligand required will depend on the instrumentation used, and the fluorescent and physicochemical properties. The concentration used must be lower than the concentration of kinase enzyme, and preferably less than half the kinase enzyme concentration.
The fluorescent ligand is the following compound:
which is derived from 5-[2-(4-aminomethylphenyl)-5-pyridin-4-yl-1H-imidazol-4-yl]-2-chlorophenol and rhodamine green.
Recombinant human p38α was expressed as a GST-tagged protein. To activate this protein, 3.5 μM unactivated p38α was incubated in 50 mM Tris-HCl pH 7.5, 0.1 mM EGTA, 0.1% 2-mercaptoethanol, 0.1 mM sodium vanadate, 10 mM MgAc, 0.1 mM ATP with 200 nM MBP-MKK6 DD at 30 degrees for 30 mins. Following activation p38α was re-purified and the activity assessed using a standard filter-binding assay.
(§2) Protocol: All components are dissolved in buffer of composition 62.5 mM HEPES, pH 7.5, 1.25 mM CHAPS, 1 mM DTT, 12.5 mM MgCl2 with final concentrations of 12 nM p38α and 5 nM fluorescent ligand. 30 μl of this reaction mixture is added to wells containing 1 μl of various concentrations of test compound (0.28 nM-16.6 μM final) or DMSO vehicle (3% final) in NUNC 384 well black microtitre plate and equilibrated for 30-60 mins at room temperature. Fluorescence anisotropy is read in Molecular Devices Acquest (excitation 485 nm/emission 535 nm).
Definitions: Ki=dissociation constant for inhibitor binding • Kf=dissociation constant for fluorescent ligand binding
Fluorescence Anisotropy Kinase Binding Low Volume Assay
as §1, with “2×Kf.” for “≧2×Kf.”
as §2, with “containing 0.1” for “containing 1”, “compound (0.02 nM-25” for “compound (0.28 nM-16.6”, “vehicle (1.7%” for “vehicle (3%”, “in Greiner low volume” for “in NUNC”
It is noted that there are two assay formats shown above for the Fluorescence anisotropy kinase binding assay. The only difference between these two assays is the volume used and the plate type. […] The results described herein may have been performed in either assay format and are not differentiated as to which.

[2] = 12 nM p38α, 5 nM fluorescent ligand, 5.1 to 8.4 is stated collectively for the listed examples, read-out: pIC50, fluorescence anisotropy kinase binding assay (converted)
[3] = no IC50 at a concentration of less than 16 uM, read-out: IC50, fluorescence anisotropy kinase binding assay

T1 sequence (Q16539 whole entry): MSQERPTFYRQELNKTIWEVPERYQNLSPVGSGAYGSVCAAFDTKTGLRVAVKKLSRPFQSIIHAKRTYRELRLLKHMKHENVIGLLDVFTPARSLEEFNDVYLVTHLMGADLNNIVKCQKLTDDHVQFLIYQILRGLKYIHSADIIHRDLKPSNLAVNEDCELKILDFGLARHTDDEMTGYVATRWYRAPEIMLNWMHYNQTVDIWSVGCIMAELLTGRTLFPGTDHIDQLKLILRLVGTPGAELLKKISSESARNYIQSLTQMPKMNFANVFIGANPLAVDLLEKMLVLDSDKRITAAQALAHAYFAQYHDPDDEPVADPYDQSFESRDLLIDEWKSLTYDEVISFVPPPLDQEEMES

| Structure (SMILES) | IC50 [1] [µM] | IC50 (Recombinant human p38α; [2]) [µM] | IC50 (Recombinant human p38α; [3]) [µM] |
| --- | --- | --- | --- |
| Cc1ccc(NC(=O)c2cccs2)cc1-c1nc(NC2CC(C)(C)NC(C)(C)C2)nc2c1ccc(=O)n2-c1c(F)cccc1F [Example 9, N-(3-{8-(2,6-difluorophenyl)-7-oxo-2-[(2,2,6,6-tetramethyl-4-piperidinyl)amino]-7,8-dihydropyrido[2,3-d]pyrimidin-4-yl}-4-methylphenyl)-2-thiophenecarboxamide] | > 0.1 | > 15.8 | ≥ 16 |
| O=C(O)c1cccc(-c2nc(NC(CO)CO)nc3c2ccc(=O)n3-c2ccc(F)cc2F)c1 [Example 96(d), 3-(8-(2,4-difluorophenyl)-2-{[2-hydroxy-1-(hydroxymethyl)ethyl]amino}-7-oxo-7,8-dihydropyrido[2,3-d]pyrimidin-4-yl)benzoic acid] | – | > 15.8 | ≥ 16 |
| CSc1nc(Cl)c2ccc(=O)n(-c3c(F)cccc3F)c2n1 [Example 1(a), 4-chloro-8-(2,6-difluorophenyl)-2-(methylthio)pyrido[2,3-d]pyrimidin-7(8H)-one] | > 0.1 | > 15.8 | ≥ 16 |
